Experimental data: patent publication EP4610269A1, “UROKINASE PLASMINOGEN ACTIVATOR SURFACE RECEPTOR (UPAR) LIGANDS FOR DIAGNOSTIC OR THERAPEUTIC USE” (3B Pharmaceuticals GmbH, priority 2024, dated 2025)
pIC50: −log10 of the molar value. *1 amine or outer side, *2 acyl side, *3 side chain or, on linkers, in order; H or OH if unused. Where a SMILES comes first, the peptide text is derived from it. Bridges are numbered along the chain shown (N, C = ends). Side-chain parts run from the residue outwards. [ ]: non-standard residue; d: D form. The star is where a group is joined. X11 = O=C(CCCC[C@@H]1SC[C@@H]2NC(=O)N[C@@H]21)NCCCOCCOCCOCCCN*; DOTA = O=C(O)CN1CCN(CC(=O)O)CCN(CC(=O)*)CCN(CC(=O)O)CC1; Pro(cis-4-F) = O=C(O)[C@@H]1C[C@H](F)CN1; Hyp = O=C(O)[C@@H]1C[C@@H](O)CN1; Pentanoyl(4-Me) = CC(C)CCC(=O)*; Cit = NC(=O)NCCC[C@H](N)C(=O)O; Butoxycarbonyl = CCCCOC(=O)*; NMeK = CN[C@@H](CCCCN)C(=O)O; Suc = O=C(CCC(=O)[*:2])[*:1]; Nva = CCC[C@H](N)C(=O)O; Pentanoyl = CCCCC(=O)*; βAla = NCCC(=O)O

Tests used:
human uPAR (uPAR-Fc) = target: T1, human uPAR (uPAR-Fc) (Homo sapiens, UniProt Q03405); experiment: Surface plasmon resonance (SPR) assay, single cycle kinetics; format: binding; settings: pKD category for uPAR SPR activity assay; uPAR-Fc on Protein A-Chip, 25°C; read-out: pKD CAT (converted)
T1 construct: comprising amino acids Leu23-Arg303 according to UniProt entry Q03405.1; purchased R&D Systems 10378-UK-100
Procedure: Surface plasmon resonance (SPR) is an optical technique used to measure molecular interactions in real time. SPR occur when plane-polarized light hits a metal film under total internal reflection conditions. SPR signal is directly dependent on the refractive index of the medium on the sensor chip. In an SPR experiment, one molecule (i.e. uPAR) is immobilized on a sensor chip and binding to a second molecule (i.e. test compounds) is measured under flow. The binding of the compound on the surface changes the refractive index. In responses the reflection angle changes as compounds bind and dissociate on the immobilized protein on the surface. This response is measured in resonance units (RU). The RUs are proportional to the number of molecules bound to the surface. […] Kinetic binding constants and equilibrium binding constants can be derived from the sensorgrams.
Surface plasmon resonance (SPR) studies were performed using a Biacore™ T200 or S200 SPR system (Cytiva, formerly GE Life Sciences) to assess binding of compounds to recombinant uPAR protein.
In this example recombinant protein comprising the extracellular domains of human uPAR (uPAR-Fc, R&D Systems, CAT 10378-UK-100, comprising amino acids Leu23-Arg303 according to UniProt entry Q03405.1 and Fc region of human IgG1 at the C-terminus) was immobilized on a Protein A-Chip (Cytiva, CAT 29127555) according to the supplier's instructions. uPAR-Fc was diluted in Running Buffer (10 mM HEPES, 150 mM NaCl, 50 µM EDTA, 0.1% DMSO, 0.05% Tween-20, pH 7.4) to a final concentration of 100 nM and then flushed over the Protein A-Chip to immobilized ~2000 RUs.
Stock solutions of test compounds were prepared by dissolving each compound in DMSO. DMSO stock solution were diluted 1: 1000 in Running Buffer without DMSO. Further sequential dilutions were made with Running Buffer containing 0.1% DMSO. SPR binding analyses were performed in Single Cycle Kinetic (SCK) mode at 25°C. Flow cell without immobilized uPAR-Fc served as reference flow cell. The chip was regenerated with 10 mM Glycine, pH 1,5 to remove the uPAR-Fc from the chip surface after each SCK run. After every three SCK measurements, a blank run with Running Buffer instead of test compound was included to correct for baseline drifts (double reference substraction method). Table 11: SPR protocol steps for SCK with uPAR-Fc immobilized on a Protein A-Chip.
For each test compound, SPR raw data sensorgrams were recorded using the Biacore™ T200 or S200 control software. Sensorgrams were processed and analyzed with the Biacore™ Insight Evaluation software. […] The reference subtracted sensorgram for each test compound was further corrected for baseline drift by subtracting the sensorgram of a reference subtracted blank run (Running Buffer only). The dissociation constant (KD) was calculated from the double reference subtracted sensorgrams using the 1:1 Langmuir binding model. The pKD value (negative decadic logarithm of dissociation constant) was calculated using Microsoft Excel.

[1] = target: T2, uPAR-expressing HEC-265 human endometrial adenocarcinoma cells (Homo sapiens, UniProt Q03405); experiment: Competitive FACS binding assay; settings: pIC50 category of FACS binding
T2 construct: Cell surface uPAR-expressing HEC-265 human endometrial adenocarcinoma cells; host or cells: HEC-265
Procedure: In order to determine binding of compounds according to the present invention to uPAR-expressing cells, a competitive FACS binding assay was established.
Cell surface uPAR-expressing HEC-265 human endometrial adenocarcinoma cells (Japanese Collection of Research Bioresources, #JCRB1142) were cultured in MEM Eagle with stable glutamine (Pan Biotech, #P04-09500) including 15% fetal bovine serum (Pan Biotech, #P30-3306) and 100 U/ml penicillin and 100 µg/mL streptomycin (Pan Biotech, #P06-07100). Cells were detached with Cell Dissociation Buffer (Thermo Scientific, #13151014) and washed in FACS buffer (PBS (Pan Biotech, #P04-36500) including 1% BSA (SeraCare, #AP-4510-80). Cells were diluted in FACS buffer to a final concentration of 500.000 cells per ml and 200 µl of the cell suspension are transferred to a u-shaped non-binding 96-well plate (Greiner Bio-One, #650901).
For IC50 determination, cells were incubated with 10 nM Bio--Ttds--Ttds--Ttds--Ttds-D-Cha-FsrYLWS-NH2) in the presence of increasing concentrations of non-labeled test compounds at 4°C for 1 hour. Cells were washed twice in FACS buffer. An additional incubation step with 1 µg/mL APC-Streptavidin (Miltenyi; #130-106-791) in 50 µL FACS buffer for 30 minutes on ice was performed followed by two washes with FACS buffer. Cells were resuspended in 200 µl FACS buffer and analyzed in an Attune NxT flow cytometer. Median fluorescence intensities (APC channel) were calculated by Attune NxT software and plotted against peptide concentrations. Four parameter logistic (4PL) curve fitting and pIC50 calculations were performed using ActivityBase software.

T2 sequence (Q03405 23-335): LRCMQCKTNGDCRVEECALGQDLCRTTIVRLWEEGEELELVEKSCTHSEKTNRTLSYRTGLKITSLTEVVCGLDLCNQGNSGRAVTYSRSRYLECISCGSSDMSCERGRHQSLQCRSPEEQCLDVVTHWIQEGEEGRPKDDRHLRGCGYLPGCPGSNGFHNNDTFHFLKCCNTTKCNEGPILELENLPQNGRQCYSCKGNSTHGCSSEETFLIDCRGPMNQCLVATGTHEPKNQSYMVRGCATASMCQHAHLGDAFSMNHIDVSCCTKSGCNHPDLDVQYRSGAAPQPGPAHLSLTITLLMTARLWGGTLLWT
T1 sequence (Q03405 23-303): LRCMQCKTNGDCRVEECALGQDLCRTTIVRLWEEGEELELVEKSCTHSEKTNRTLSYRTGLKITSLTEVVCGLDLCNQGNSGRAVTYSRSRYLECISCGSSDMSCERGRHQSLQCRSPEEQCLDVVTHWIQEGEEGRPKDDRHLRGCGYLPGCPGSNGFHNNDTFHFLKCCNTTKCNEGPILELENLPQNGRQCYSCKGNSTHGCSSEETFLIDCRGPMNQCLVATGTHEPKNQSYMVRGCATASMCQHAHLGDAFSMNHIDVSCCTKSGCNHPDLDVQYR

Structure (SMILES) | Kd (human uPAR (uPAR-Fc)) [nM] | pIC50 [1]
CCCCOC(=O)N[C@H]1CSSC[C@@H](C(=O)NCCC(=O)O)NC(=O)[C@H](CCC)NC(=O)[C@H]([C@@H](C)CC)NC(=O)[C@@H]2C[C@@H](O)CN2C(=O)[C@@H]2C[C@H](F)CN2C(=O)[C@H](Cc2ccccc2)NC(=O)[C@H](Cc2ccc(O)cc2)NC(=O)[C@H](CCCCNC(=O)CN2CCN(CC(=O)O)CCN(CC(=O)O)CCN(CC(=O)O)CC2)NC(=O)[C@H]([C@@H](C)O)NC1=O [UPAR-127, Butoc-[Cys-Thr-Lys(DOTA)-Tyr-Phe-4Cfp-Hyp-Ile-Nva-Cys]-Bal-OH] (Butoxycarbonyl-CTK(DOTA)YF[Pro(cis-4-F)][Hyp]I[Nva]C[βAla]-OH; disulfide 1-10) | 1.58 to 10 | ≥ 8.00
CCCCOC(=O)N[C@H]1CSSC[C@@H](C(N)=O)NC(=O)[C@H](CCC)NC(=O)[C@H]([C@@H](C)CC)NC(=O)[C@@H]2C[C@@H](O)CN2C(=O)[C@@H]2C[C@@H](O)CN2C(=O)[C@H](Cc2ccccc2)NC(=O)[C@H](Cc2ccc(O)cc2)NC(=O)[C@H](CCCCNC(=O)CN2CCN(CC(=O)O)CCN(CC(=O)O)CCN(CC(=O)O)CC2)NC(=O)[C@H]([C@@H](C)O)NC1=O [UPAR-128, Butoc-[Cys-Thr-Lys(DOTA)-Tyr-Phe-Hyp-Hyp-Ile-Nva-Cys]-NH2] (Butoxycarbonyl-CTK(DOTA)YF[Hyp][Hyp]I[Nva]C-NH2; disulfide 1-10) | < 1.58 | ≥ 8.00
CC[C@H](C)[C@@H]1NC(=O)[C@@H](C)NC(=O)[C@@H]2CCCN2C(=O)[C@H](Cc2ccccc2)NC(=O)[C@H](Cc2ccc(O)cc2)NC(=O)[C@H](CCC(N)=O)NC(=O)[C@@H](CCCCNC(=O)CN2CCN(CC(=O)O)CCN(CC(=O)O)CCN(CC(=O)O)CC2)NC(=O)[C@@H](NC(=O)CCC(C)C)CSSC[C@@H](C(N)=O)NC(=O)[C@H](CC(C)C)NC1=O [UPAR-130, iHex-[Cys-lys(DOTA)-Gln-Tyr-Phe-Pro-ala-Ile-Leu-Cys]-NH2] ({Pentanoyl(4-Me)}-C[dK](DOTA)QYFP[dA]ILC-NH2; disulfide 1-10) | > 100 | ≤ 6.90

Second part, led by results:

Kd (human uPAR (uPAR-Fc)) [nM] | Structure (SMILES) | pIC50 [1]
> 100 | CC[C@H](C)[C@@H]1NC(=O)[C@@H](C)NC(=O)[C@@H]2CCCN2C(=O)[C@H](Cc2ccccc2)NC(=O)[C@H](Cc2ccc(O)cc2)NC(=O)[C@H](CCC(N)=O)NC(=O)[C@H](CCCNC(N)=O)NC(=O)[C@@H](NC(=O)CCC(C)C)CSSC[C@@H](C(=O)O)NC(=O)[C@H](CC(C)C)NC1=O [UPAR-131, iHex-[Cys-Cit-Gln-Tyr-Phe-Pro-ala-Ile-Leu-Cys]-OH] ({Pentanoyl(4-Me)}-C[Cit]QYFP[dA]ILC-OH; disulfide 1-10) | ≤ 6.90
10 to 100 | CCCCC(=O)N[C@H]1CSSC[C@@H](C(N)=O)NC(=O)[C@H](CCC)NC(=O)[C@H]([C@@H](C)CC)NC(=O)[C@H](CCCCN)N(C)C(=O)[C@@H]2CCCN2C(=O)[C@H](Cc2ccccc2)NC(=O)[C@H](Cc2ccc(O)cc2)NC(=O)[C@H](CCCCNC(=O)CCC(=O)NCCCOCCOCCOCCCNC(=O)CCCC[C@@H]2SC[C@@H]3NC(=O)N[C@@H]32)NC(=O)[C@H](CCCNC(N)=O)NC1=O [UPAR-317, Pent-[Cys-Cit-Lys(Bio-Ttds)-Tyr-Phe-Pro-Nmk-Ile-Nva-Cys]-NH2] (Pentanoyl-C[Cit]K([Suc-X11])YFP[NMeK]I[Nva]C-NH2; disulfide 1-10) | –
